Where no end group is shown, it is not given here.
B1: lysozyme: host protein tested in preliminary experiments against 16 S. mutans strains (protein, UniProt P61626 19-148, looked up)
Lysozyme C: KVFERCELARTLKRLGMDGYRGISLANWMCLAKWESGYNTRATNYNAGDRSTDYGIFQINSRYWCNDGKTPGAVNACHLSCSALLQDNIADAVACAKRVVRDPQGIRAWVAWRNRCQNRDVRQYVQGCGV

Tested on: S. mutans clinical strains
Assay: alamarBlue antimicrobial susceptibility test
Format: cell-based, Streptococcus mutans
Conditions: preliminary experiments; 16 S. mutans strains; peptide concentrations 20 μg/ml or below

| Molecule | susceptibility of S. mutans strains to the peptide |
| --- | --- |
| HBD-1: human β-defensin, salivary cationic antimicrobial peptide (DHYNCVSSGGQCLYSACPIFTKIQGTCYRGKAKCCK; ends and bridges not checked; cysteine pairing not given here; UniProt P60022 33-68, looked up) | no susceptibility |
| histatin-5 | no susceptibility |
| B1 | no susceptibility |

— paper PMC3092152 (Molecular oral microbiology, 2011)
